Patent US12441703B2, “Carboxamides as modulators of sodium channels” (VERTEX PHARMACEUTICALS INCORPORATED, priority 2019, dated 2025)

target: human NaV 1.8 (Homo sapiens, UniProt Q9Y5Y9); assay: E-VIPR assay for detecting and measuring NaV inhibition properties; type: cell-based; details: E-VIPR assay conducted in the presence of human serum; HEK cells expressing truncated human NaV 1.8; read-out: IC50
Procedure, shortened: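 Membrane-potential (coumarin/oxonol) readout after 10 s of 10 Hz biphasic electrical stimulation on E-VIPR. Compounds: 11-point 3-fold dilutions, […], 0.625% DMSO, 30 min at room temperature, human serum optional. Cells: HEK expressing truncated human NaV1.8 co-transduced with KIR2.1.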

Chain of human NaV 1.8 (Q9Y5Y9 whole entry, looked up, the tested form may be a part): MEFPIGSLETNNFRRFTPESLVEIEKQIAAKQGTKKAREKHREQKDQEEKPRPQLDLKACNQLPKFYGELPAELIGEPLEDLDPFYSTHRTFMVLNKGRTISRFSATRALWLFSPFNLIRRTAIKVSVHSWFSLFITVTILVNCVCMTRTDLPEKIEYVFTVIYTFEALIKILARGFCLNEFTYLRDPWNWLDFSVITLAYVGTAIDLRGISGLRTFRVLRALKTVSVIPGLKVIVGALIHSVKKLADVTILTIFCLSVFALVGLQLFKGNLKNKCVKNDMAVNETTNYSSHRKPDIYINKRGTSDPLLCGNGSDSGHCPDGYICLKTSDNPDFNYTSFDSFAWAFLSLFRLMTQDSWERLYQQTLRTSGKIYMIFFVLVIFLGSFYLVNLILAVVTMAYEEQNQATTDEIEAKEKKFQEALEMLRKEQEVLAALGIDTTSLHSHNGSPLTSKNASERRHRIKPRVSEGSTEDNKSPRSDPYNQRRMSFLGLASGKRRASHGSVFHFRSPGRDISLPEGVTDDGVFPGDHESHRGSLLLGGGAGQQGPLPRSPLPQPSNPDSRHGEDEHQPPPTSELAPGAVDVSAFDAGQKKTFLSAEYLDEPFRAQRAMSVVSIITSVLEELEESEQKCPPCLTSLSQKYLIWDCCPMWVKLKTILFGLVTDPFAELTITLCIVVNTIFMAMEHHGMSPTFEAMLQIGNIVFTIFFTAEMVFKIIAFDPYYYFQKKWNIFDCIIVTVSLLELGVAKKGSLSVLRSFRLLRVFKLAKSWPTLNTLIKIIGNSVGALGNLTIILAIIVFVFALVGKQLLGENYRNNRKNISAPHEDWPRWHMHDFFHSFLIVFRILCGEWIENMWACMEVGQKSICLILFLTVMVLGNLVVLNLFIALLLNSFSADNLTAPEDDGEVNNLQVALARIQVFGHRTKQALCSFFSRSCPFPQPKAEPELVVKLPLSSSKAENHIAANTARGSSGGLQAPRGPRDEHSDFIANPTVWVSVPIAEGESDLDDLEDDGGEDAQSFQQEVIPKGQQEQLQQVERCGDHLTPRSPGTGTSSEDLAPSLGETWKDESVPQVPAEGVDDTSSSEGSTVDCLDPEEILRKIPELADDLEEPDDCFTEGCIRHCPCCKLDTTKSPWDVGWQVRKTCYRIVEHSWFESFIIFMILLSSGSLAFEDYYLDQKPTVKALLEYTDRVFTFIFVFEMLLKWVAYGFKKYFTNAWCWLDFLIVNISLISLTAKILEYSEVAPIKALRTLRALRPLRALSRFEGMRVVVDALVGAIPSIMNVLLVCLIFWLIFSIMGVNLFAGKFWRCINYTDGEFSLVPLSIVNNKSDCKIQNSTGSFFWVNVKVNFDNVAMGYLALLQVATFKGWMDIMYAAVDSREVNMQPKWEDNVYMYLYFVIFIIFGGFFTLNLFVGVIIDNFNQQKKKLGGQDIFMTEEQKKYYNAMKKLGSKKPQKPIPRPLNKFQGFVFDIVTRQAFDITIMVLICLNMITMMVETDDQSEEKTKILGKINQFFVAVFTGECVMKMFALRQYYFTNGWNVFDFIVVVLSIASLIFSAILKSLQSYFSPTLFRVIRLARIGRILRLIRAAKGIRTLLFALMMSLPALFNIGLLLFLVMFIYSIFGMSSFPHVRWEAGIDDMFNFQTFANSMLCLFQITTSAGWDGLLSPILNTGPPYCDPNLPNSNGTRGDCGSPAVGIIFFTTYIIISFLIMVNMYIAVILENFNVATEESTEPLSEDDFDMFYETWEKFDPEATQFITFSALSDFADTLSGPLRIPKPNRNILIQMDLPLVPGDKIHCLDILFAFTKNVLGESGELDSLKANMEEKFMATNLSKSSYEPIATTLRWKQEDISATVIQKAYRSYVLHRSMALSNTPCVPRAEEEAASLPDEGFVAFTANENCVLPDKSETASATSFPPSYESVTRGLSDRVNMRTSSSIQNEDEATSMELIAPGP

Compound | IC50
NC(=O)c1ccc(NC(=O)c2c(Oc3ccc(OC(F)(F)F)cc3C3CC3)ccc(C(F)(F)F)c2F)cn1 [Compound 206, 5-[[6-[2-cyclopropyl-4-(trifluoromethoxy)phenoxy]-2-fluoro-3-(trifluoromethyl)benzoyl]amino]pyridine-2-carboxamide] | 360 nM
Cc1c(F)ccc(Oc2ccc(C(F)(F)F)c(F)c2C(=O)Nc2ccc(C(N)=O)nc2)c1C [Compound 214, 5-[[2-fluoro-6-(4-fluoro-2,3-dimethyl-phenoxy)-3-(trifluoromethyl)benzoyl]amino]pyridine-2-carboxamide] | > 3000 nM
COc1cc(OC(F)(F)F)ccc1Oc1cc(-c2ccc(C(F)(F)F)cc2)ccc1C(=O)Nc1ccnc(C(N)=O)c1 [Compound 157, 4-[[2-[2-methoxy-4-(trifluoromethoxy)phenoxy]-4-[4-(trifluoromethyl)phenyl]benzoyl]amino]pyridine-2-carboxamide] | 408 nM
Cc1cc(Oc2ccc(C(F)(F)F)c(F)c2C(=O)Nc2ccnc(C(N)=O)c2)ccc1F [Compound 32, 4-[[2-fluoro-6-(4-fluoro-3-methyl-phenoxy)-3-(trifluoromethyl)benzoyl]amino]pyridine-2-carboxamide] | 200 nM
NC(=O)c1cc(NC(=O)c2c(Oc3ccc(F)c(F)c3)ccc(C(F)(F)F)c2F)ccn1 [Compound 24, 4-[[6-(3,4-difluorophenoxy)-2-fluoro-3-(trifluoromethyl)benzoyl]amino]pyridine-2-carboxamide] | 200 nM
NC(=O)c1cc(NC(=O)c2c(Oc3ccc(F)c(Cl)c3)ccc(C(F)(F)F)c2F)ccn1 [Compound 25, 4-[[6-(3-chloro-4-fluoro-phenoxy)-2-fluoro-3-(trifluoromethyl)benzoyl]amino]pyridine-2-carboxamide] | 160 nM
COc1cc(OC(F)(F)F)ccc1Oc1cc(C(F)(F)F)cc(Br)c1C(=O)Nc1ccnc(C(N)=O)c1 [Compound 255, 4-[[2-bromo-6-[2-methoxy-4-(trifluoromethoxy)phenoxy]-4-(trifluoromethyl)benzoyl]amino]pyridine-2-carboxamide] | > 3000 nM
NC(=O)c1cc(NC(=O)c2ccc(C(F)(F)F)cc2Oc2ccc(OC3CCCCC3)cc2)ccn1 [Compound 109, 4-[[2-[4-(cyclohexoxy)phenoxy]-4-(trifluoromethyl)benzoyl]amino]pyridine-2-carboxamide] | > 3000 nM
[2H]C([2H])([2H])Oc1cc(OC(F)(F)F)ccc1Oc1cc2c(cc1C(=O)Nc1ccc(C(N)=O)nc1)OCCO2 [Compound 1037] | > 3000 nM
COc1cc(C)cc(OC)c1Oc1ccc(C(F)(F)F)c(C)c1C(=O)Nc1ccc(C(N)=O)nc1 [Compound 228, 5-[[6-(2,6-dimethoxy-4-methyl-phenoxy)-2-methyl-3-(trifluoromethyl)benzoyl]amino]pyridine-2-carboxamide] | > 3000 nM
COc1cc(C)cc(OC)c1Oc1ccc(C(F)(F)F)c(F)c1C(=O)Nc1ccnc(C(N)=O)c1 [Compound 45, 4-[[6-(2,6-dimethoxy-4-methyl-phenoxy)-2-fluoro-3-(trifluoromethyl)benzoyl]amino]pyridine-2-carboxamide] | > 3000 nM
Cc1c(F)ccc(Oc2ccc(C(F)(F)F)c(C)c2C(=O)Nc2ccc(C(N)=O)nc2)c1C [Compound 231, 5-[[6-(4-fluoro-2,3-dimethyl-phenoxy)-2-methyl-3-(trifluoromethyl)benzoyl]amino]pyridine-2-carboxamide] | > 3000 nM
COc1cc(F)ccc1Oc1cccc(C(F)(F)F)c1C(=O)Nc1ccnc(C(N)=O)c1 [Compound 75, 4-[[2-(4-fluoro-2-methoxy-phenoxy)-6-(trifluoromethyl)benzoyl]amino]pyridine-2-carboxamide] | 1750 nM
Cc1cc(Cl)cc(C)c1Oc1ccc(C(F)(F)F)c(F)c1C(=O)Nc1ccc(C(N)=O)nc1 [Compound 208, 5-[[6-(4-chloro-2,6-dimethyl-phenoxy)-2-fluoro-3-(trifluoromethyl)benzoyl]amino]pyridine-2-carboxamide] | > 3000 nM
COc1cc(OC(F)(F)F)ccc1Oc1ccc(OC2CC(F)(F)C2)c(C)c1C(=O)Nc1ccnc(C(N)=O)c1 [Compound 204, 4-[[3-(3,3-Difluorocyclobutoxy)-6-[2-Methoxy-4-(Trifluoromethoxy)Phenoxy]-2-Methyl-Benzoyl]Amino]Pyridine-2-Carboxamide] | 170 nM
CC(C)(C)c1cc(Cc2ccc(F)c(F)c2)c(C(=O)Nc2ccnc(C(N)=O)c2)cn1 [Compound 350, 6-tert-butyl-N-(2-carbamoyl-4-pyridyl)-4-[(3,4-difluorophenyl)methyl]pyridine-3-carboxamide] | > 3000 nM
COc1cc(C)cc(OC)c1Oc1ccc(C(F)(F)F)c(C)c1C(=O)Nc1ccnc(C(N)=O)c1 [Compound 145, 4-[[6-(2,6-dimethoxy-4-methyl-phenoxy)-2-methyl-3-(trifluoromethyl)benzoyl]amino]pyridine-2-carboxamide] | > 3000 nM

Stronger by IC50, values ahead:

IC50 | Compound
140 nM | COc1cc(OC(F)(F)F)ccc1Oc1cc(C(F)(F)F)c(C2CC2)nc1C(=O)Nc1ccnc(C(N)=O)c1 [Compound 246, N-(2-carbamoyl-4-pyridyl)-6-cyclopropyl-3-[2-methoxy-4-(trifluoromethoxy)phenoxy]-5-(trifluoromethyl)pyridine-2-carboxamide]
83 nM | Cc1c(C(F)(F)F)ccc(Oc2ccc(OC(F)(F)F)cc2F)c1C(=O)Nc1ccnc(C(N)=O)c1 [Compound 128, 4-[[6-[2-fluoro-4-(trifluoromethoxy)phenoxy]-2-methyl-3-(trifluoromethyl)benzoyl]amino]pyridine-2-carboxamide]
79 nM | [2H]C([2H])([2H])Oc1cc(OC(F)(F)F)ccc1Oc1cc(C2CCOCC2)cc(F)c1C(=O)Nc1ccnc(C(N)=O)c1 [Compound 1019, 4-[[2-fluoro-4-tetrahydropyran-4-yl-6-[2-(trideuteriomethoxy)-4-(trifluoromethoxy)phenoxy]benzoyl]amino]pyridine-2-carboxamide]
74 nM | NC(=O)c1ccc(NC(=O)c2c(Oc3ccc(OC(F)(F)F)c(F)c3Cl)ccc(C(F)(F)F)c2F)cn1 [Compound 297, 5-[[6-[2-Chloro-3-Fluoro-4-(Trifluoromethoxy)Phenoxy]-2-Fluoro-3-(Trifluoromethyl)Benzoyl]Amino]Pyridine-2-Carboxamide]
52 nM | COc1cc(OC(F)(F)F)ccc1Oc1cc(C2CC2)c(F)c(C)c1C(=O)Nc1ccnc(C(N)=O)c1 [Compound 264, 4-[[4-cyclopropyl-3-fluoro-6-[2-methoxy-4-(trifluoromethoxy)phenoxy]-2-methyl-benzoyl]amino]pyridine-2-carboxamide]
48 nM | NC(=O)c1cc(NC(=O)c2c(Oc3ccc(F)cc3Cl)ccc(C(F)(F)F)c2F)ccn1 [Compound 20, 4-[[6-(2-chloro-4-fluoro-phenoxy)-2-fluoro-3-(trifluoromethyl)benzoyl]amino]pyridine-2-carboxamide]
43 nM | NC(=O)c1cc(NC(=O)c2c(Oc3ccc(F)c4c3OCC4)ccc(C(F)(F)F)c2F)ccn1 [Compound 30, 4-[[2-fluoro-6-[(4-fluoro-2,3-dihydrobenzofuran-7-yl)oxy]-3-(trifluoromethyl)benzoyl]amino]pyridine-2-carboxamide]
39 nM | [2H]C([2H])([2H])Oc1cc(OC(F)(F)F)ccc1Oc1cc(-c2cccc(C(F)(F)F)c2)cc(F)c1C(=O)Nc1ccnc(C(N)=O)c1 [Compound 94, 4-[[2-fluoro-6-[2-(trideuteriomethoxy)-4-(trifluoromethoxy)phenoxy]-4-[3-(trifluoromethyl)phenyl]benzoyl]amino]pyridine-2-carboxamide]
29 nM | COc1c(Oc2ccc(C(F)(F)F)c(F)c2C(=O)Nc2cc(C(N)=O)ccn2)ccc(OC(F)(F)F)c1F [Compound 330, 2-[[2-fluoro-6-[3-fluoro-2-methoxy-4-(trifluoromethoxy)phenoxy]-3-(trifluoromethyl)benzoyl]amino]pyridine-4-carboxamide]
24 nM | COc1c(Oc2ccc(C(F)(F)F)c(C)c2C(=O)Nc2cnc(C(N)=O)cn2)ccc(OC(F)(F)F)c1F [Compound 316, 5-[[6-[3-fluoro-2-methoxy-4-(trifluoromethoxy)phenoxy]-2-methyl-3-(trifluoromethyl)benzoyl]amino]pyrazine-2-carboxamide]
17 nM | CC(C)Oc1ccc(Oc2ccc(C(F)(F)F)c(F)c2C(=O)Nc2ccnc(C(N)=O)c2)cc1Cl [Compound 33, 4-[[6-(3-chloro-4-isopropoxy-phenoxy)-2-fluoro-3-(trifluoromethyl)benzoyl]amino]pyridine-2-carboxamide]
17 nM | Cc1c(C(F)(F)F)ccc(Oc2ccc(OC(F)(F)F)cc2Cl)c1C(=O)Nc1ccnc(C(N)=O)c1 [Compound 146, 4-[[6-[2-chloro-4-(trifluoromethoxy)phenoxy]-2-methyl-3-(trifluoromethyl)benzoyl]amino]pyridine-2-carboxamide]
13 nM | COc1cc(F)ccc1Oc1ccc(C(F)(F)F)c(F)c1C(=O)Nc1ccnc(C(N)=O)c1 [Compound 103, 4-[[2-fluoro-6-(4-fluoro-2-methoxy-phenoxy)-3-(trifluoromethyl)benzoyl]amino]pyridine-2-carboxamide]
11 nM | COc1cc(OC(F)(F)F)ccc1Oc1cc(C2CCC(C(C)(C)C)CC2)cc(F)c1C(=O)Nc1ccnc(C(N)=O)c1 (single isomer, unassigned) [169 (first diastereomer), 4-[[4-(4-tert-butylcyclohexyl)-2-fluoro-6-[2-methoxy-4-(trifluoromethoxy)phenoxy]benzoyl]amino]pyridine-2-carboxamide]
6.4 nM | COc1cc(Oc2ccc(F)c(F)c2OC)c(C(=O)Nc2ccnc(C(N)=O)c2)c(F)c1C(F)(F)F [Compound 299, 4-[[6-(3,4-Difluoro-2-Methoxy-Phenoxy)-2-Fluoro-4-Methoxy-3-(Trifluoromethyl)Benzoyl]Amino]Pyridine-2-Carboxamide]
